Test results taken from publication PMC8015083 (ACS Omega, 2021).
≈ marks a conversion by molar mass, not a printed value. Where “and” joins values, the source holds several entries; their conditions need not be identical. Identical values can stand only once. Like-named read-outs stand apart in the source and are kept apart here.

Experiments:
C. neoformans = experiment: microbe, parasite or virus in culture; type: cell-based, Cryptococcus neoformans; conditions: for MIC80: Cryptococcus neoformans
C. neoformans KN99 [1] = experiment: microbe, parasite or virus in culture; type: cell-based; conditions: Cryptococcus neoformans, KN99, 48 h, read-out: C. neo MIC80
M. furfur = experiment: microbe, parasite or virus in culture; type: cell-based; conditions: Malassezia furfur, read-out: MIC80 in M. furfur
M. pachydermatis = experiment: microbe, parasite or virus in culture; type: cell-based; conditions: Malassezia pachydermatis, read-out: MIC80 in M. pachydermatis
C. neoformans KN99 [2] = type: cell-based, Cryptococcus neoformans
C. neoformans KN99 [3] = type: cell-based, Cryptococcus neoformans; remark: listed apart in the source
[4] = tested on: C. neoformans aox1Δ strain; type: cell-based, Cryptococcus neoformans
[5] = human, in vivo; cited from earlier work

## C[C@@H]1[C@H](O)[C@@H](C)/C=C/C=C/C=C/C=C/C=C/C=C/C=C/[C@H](O[C@@H]2O[C@H](C)[C@@H](O)[C@H](N)[C@@H]2O)C[C@@H]2O[C@](O)(C[C@@H](O)C[C@@H](O)[C@H](O)CC[C@@H](O)C[C@@H](O)CC(=O)O[C@H]1C)C[C@H](O)[C@H]2C(=O)O [AMB, amphotericin B]
C. neoformans; read-out: MIC80 alone, AMB
  MIC80: 1.5 µM (≈ 1.39 µg/mL)

## C=C(C)[C@H]1Cc2c(ccc3c2O[C@@H]2COc4cc(OC)c(OC)cc4[C@@H]2C3=O)O1 [rotenone]
C. neoformans; read-out: MIC80 alone, rotenone
  MIC80: 15 µM (≈ 5.92 µg/mL)

## Cc1ccc2ccc3ccc(C)nc3c2n1 [neocuproine]
C. neoformans; read-out: MIC80 alone, neocuproine
  MIC80: 0.25 µM (≈ 0.0521 µg/mL)

## Cc1cc(-c2ccc(S(=O)(=O)O)cc2)c2ccc3c(-c4ccc(S(=O)(=O)O)cc4)cc(C)nc3c2n1 [BCS, bathocuproinedisulfonic acid]
C. neoformans
  MIC80 alone, BCS: >200 µM

## Cc1cc(C2CCCCC2)n(O)c(=O)c1 [CPO, Ciclopirox olamine]
C. neoformans KN99 [1]
  MIC: 0.87 µM and 0.18 µg/mL
M. furfur
  MIC80: ~25 µM (≈ 5.18 µg/mL)
M. pachydermatis
  MIC80: ~25 µM (≈ 5.18 µg/mL)
C. neoformans KN99 [2]
  killing of the cells: 99.9%
C. neoformans
  FICI: 0.75
C. neoformans KN99 [3]
  rescue of inhibition by exogenous copper: partially rescued
  rescue of inhibition by exogenous iron: fully rescued
  rescue of inhibition by zinc: did not rescue
[4]
  MIC80 in aox1Δ strain compared with wild type: no difference in sensitivity
[5]
  tolerability of oral dosing: well tolerated

## Cc1cc(CC2CCCCC2)n(O)c(=O)c1 [SLU-2321]
C. neoformans
  FICI: 0.63
  FICI in combination with CPO: 0.51
C. neoformans KN99 [3]
  rescue of inhibition by exogenous copper: only partially rescued
  rescue of inhibition by exogenous iron: fully rescued
  rescue of inhibition by zinc: did not rescue

## O=C(NO)c1ccccc1O [SHAM, salicylhydroxamic acid]
C. neoformans; read-out: MIC80 alone, SHAM
  MIC80: 2000 µM (≈ 306 µg/mL)

## OC(Cn1cncn1)(Cn1cncn1)c1ccc(F)cc1F [FLC, fluconazole]
C. neoformans; read-out: MIC80 alone, FLC
  MIC80: 3 µM (≈ 0.919 µg/mL)

## Cc1cc(Cc2ccc(Cl)cc2)n(O)c(=O)c1 [SLU-2707]
C. neoformans
  FICI: 0.63
  FICI in combination with CPO: 0.37
C. neoformans KN99 [3]
  rescue of inhibition by exogenous copper: did not rescue
  rescue of inhibition by exogenous iron: fully rescued
  rescue of inhibition by zinc: did not rescue

## Cc1c(O)c(=O)ccn1C [DFP, deferiprone]
C. neoformans
  MIC80 alone, DFP: 200 µM (≈ 27.8 µg/mL)
C. neoformans; read-out: MIC80 alone, DFP
  MIC80: > 200 µM

## O=C(O)CC(=O)O [malonate]
C. neoformans; read-out: MIC80 alone, malonate
  MIC80: 25 µM (≈ 2.6 µg/mL)

## CO/C(=C/C(N)=O)[C@H](C)[C@H](/C=C/c1csc(-c2csc([C@@H](C)/C=C/C=C/C(C)C)n2)n1)OC [myxothiazol]
C. neoformans
  MIC80 alone, myxothiazol: 5 µM (≈ 2.44 µg/mL)
